Measurements published in article PMC8313282 (Microbial Biotechnology, 2021).

Target: T1, YHR112C (Saccharomyces cerevisiae, UniProt P38716)
T1 sequence (P38716 1-378): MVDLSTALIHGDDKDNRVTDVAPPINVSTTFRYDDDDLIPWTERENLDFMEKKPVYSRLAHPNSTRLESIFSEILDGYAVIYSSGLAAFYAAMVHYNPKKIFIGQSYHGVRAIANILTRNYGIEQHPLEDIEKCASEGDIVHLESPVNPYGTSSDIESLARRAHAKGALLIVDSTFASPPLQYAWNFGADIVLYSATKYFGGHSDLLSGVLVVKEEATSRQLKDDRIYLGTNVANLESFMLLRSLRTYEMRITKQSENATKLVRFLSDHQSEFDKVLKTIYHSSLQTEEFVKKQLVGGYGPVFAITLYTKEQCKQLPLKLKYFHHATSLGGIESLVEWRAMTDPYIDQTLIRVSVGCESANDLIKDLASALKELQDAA
Test: HPLC of L-Met depletion and alpha-ketobutyrate
Assay type: biochemical
Settings: 50 mM Tris-HCl pH 8.0; 20 mM L-Met; 5 μM PLP; 30°C; 1 h; weak activity

CSCC[C@H](N)C(=O)O [L‐Met]
HPLC of L-Met depletion and alpha-ketobutyrate: while weak changes were observed for YHR112C
